As usually defined, the IC50 is the concentration needed to halve the response being measured. As a reminder, the inhibition is the share of the control response that was lost under treatment.

The text below walks through data of patent US10780090B2, “Heteroaryl compounds useful as inhibitors of SUMO activating enzyme” (Millennium Pharmaceuticals, Inc., priority 2014, dated 2020).

The target of this assay is recombinant human SAE enzyme (Homo sapiens (Human), UniProt Q9UBT2). The assay can be described thus: SAE HTRF enzyme assay. The following applies: for inhibition at 0.111 µM: read-out: Percent Inhibition. The class given is biochemical. In short, it runs like this: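 0.11 nM SAE incubated with 0.5 μM ATP, 0.01 μM Ubc9-GST and 0.125 μM Sumo-Flag in HEPES pH 7.5, MgCl2, GSH, BSA, ±inhibitor, 105 min at 24° C. EDTA stop; Eu-cryptate anti-Flag/XL-APC anti-GST HTRF read after 2 h. Values given as single-concentration % inhibition or IC50.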
Chain of recombinant human SAE enzyme (Q9UBT2 whole entry): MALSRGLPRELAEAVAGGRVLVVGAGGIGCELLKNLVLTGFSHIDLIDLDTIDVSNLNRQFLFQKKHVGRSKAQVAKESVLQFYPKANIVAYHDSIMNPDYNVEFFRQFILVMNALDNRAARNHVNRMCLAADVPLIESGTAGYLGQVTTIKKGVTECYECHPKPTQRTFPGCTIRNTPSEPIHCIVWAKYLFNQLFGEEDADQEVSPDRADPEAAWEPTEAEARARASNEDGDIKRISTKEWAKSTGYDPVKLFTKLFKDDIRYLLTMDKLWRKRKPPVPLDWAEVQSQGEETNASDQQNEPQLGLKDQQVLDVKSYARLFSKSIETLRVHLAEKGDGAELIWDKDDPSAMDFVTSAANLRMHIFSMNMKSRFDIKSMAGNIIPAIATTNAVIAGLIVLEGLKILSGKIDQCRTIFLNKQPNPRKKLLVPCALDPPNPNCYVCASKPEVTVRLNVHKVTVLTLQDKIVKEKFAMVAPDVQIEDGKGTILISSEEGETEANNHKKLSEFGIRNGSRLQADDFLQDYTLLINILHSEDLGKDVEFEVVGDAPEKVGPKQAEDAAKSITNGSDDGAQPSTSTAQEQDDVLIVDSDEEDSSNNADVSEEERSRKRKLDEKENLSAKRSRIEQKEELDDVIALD
Chain of recombinant human SAE enzyme (Q9UBE0 whole entry partner): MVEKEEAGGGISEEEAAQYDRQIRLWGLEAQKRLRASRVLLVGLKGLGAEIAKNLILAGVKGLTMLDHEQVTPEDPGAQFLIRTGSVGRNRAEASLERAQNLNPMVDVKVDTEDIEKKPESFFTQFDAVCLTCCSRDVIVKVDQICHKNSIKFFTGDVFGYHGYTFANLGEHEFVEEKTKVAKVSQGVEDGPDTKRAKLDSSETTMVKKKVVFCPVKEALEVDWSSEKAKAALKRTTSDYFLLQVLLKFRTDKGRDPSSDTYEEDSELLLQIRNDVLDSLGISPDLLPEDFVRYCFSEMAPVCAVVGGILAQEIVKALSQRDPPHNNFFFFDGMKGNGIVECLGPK
On the technique in general: In TR-FRET formats the signal depends on donor and acceptor labels being close together.

The mark [1] stands for this setting: SAE inhibition at compound concentration 0.111 μM.
Where [2] appears, read: SAE inhibition, class symbols, legend in nM.

Read-outs that look alike come from different tables or passages of the source.

`NS(=O)(=O)OC[C@H]1C[C@@H](Nc2ncncc2C(=O)c2cc([C@H](O)c3cccc(Cl)c3)cs2)C[C@@H]1O` (single isomer, unassigned) [I-4b, [(1R,2S,4R)-4-{[5-({4-[(R)-(3-chlorophenyl)(hydroxy)methyl]-2-thienyl}carbonyl)pyrimidin-4-yl]amino}-2-hydroxycyclopentyl]methyl sulfamate or [(1R,2S,4R)-4-{[5-({4-[(S)-(3-chlorophenyl)(hydroxy)methyl]-2-thienyl}carbonyl)pyrimidin-4-yl]amino}-2-hydroxycyclopentyl]methyl sulfamate]: for the setting “Concentration 0.111 μM”, the “Percent Inhibition” value worked out at 100. In addition, the 50% inhibitory concentration (IC50) (class symbols A/B/C) is less than 10 nM.
Consider `CC(=O)c1coc(C(=O)c2cncnc2N[C@@H]2C[C@H](COS(N)(=O)=O)[C@@H](O)C2)c1` [I-234, [(1R,2S,4R)-4-{[5-(4-Acetyl-2-furoyl)pyrimidin-4-yl]amino}-2-hydroxycyclopentyl]methyl sulfamate], for which the inhibition at 0.111 µM (Concentration 0.111 μM) came to 20%. Further, the IC50 (class symbols A/B/C) is 100 to 1000 nM.
Take `C[C@@]1(c2csc(C(=O)c3cncnc3N[C@@H]3C[C@H](COS(N)(=O)=O)[C@@H](O)C3)c2)NCCc2ccc(Cl)cc21` (mixture of isomers) [I-321, [(1R,2S,4R)-4-{[5-({4-[(1R)-7-chloro-1-methyl-1,2,3,4-tetrahydroisoquinolin-1-yl]-2-thienyl}carbonyl)pyrimidin-4-yl]amino}-2-hydroxycyclopentyl]methyl sulfamate and [(1R,2S,4R)-4-{[5-({4-[(1S)-7-chloro-1-methyl-1,2,3,4-tetrahydroisoquinolin-1-yl]-2-thienyl}carbonyl)pyrimidin-4-yl]amino}-2-hydroxycyclopentyl]methyl sulfamate]: under setting [1], the “Percent Inhibition” value is reported as 94%. Besides, the concentration for half-maximal inhibition (IC50) under setting [2] is less than 10 nM.
With `NS(=O)(=O)OC[C@H]1C[C@@H](Nc2ncncc2C(=O)c2ccc(Cc3cccc(Br)c3)o2)C[C@@H]1O` [I-82, [(1R,2S,4R)-4-({5-[5-(3-bromobenzyl)-2-furoyl]pyrimidin-4-yl}amino)-2-hydroxycyclopentyl]methyl sulfamate], for the setting “Concentration 0.111 μM”, the inhibition at 0.111 µM turned out to be 99%.
For `Cc1sc(C(=O)c2cncnc2N[C@@H]2C[C@H](COS(N)(=O)=O)[C@@H](O)[C@H]2O)nc1Cc1cccc(Br)c1` [I-354, {(1R,2R,3S,4R)-4-[(5-{[4-(3-bromobenzyl)-5-methyl-1,3-thiazol-2-yl]carbonyl}pyrimidin-4-yl)amino]-2,3-dihydroxycyclopentyl}methyl sulfamate], the inhibition at 0.111 µM under setting [1] worked out at 100%. Besides, under setting [2], the IC50 was less than 10 nM.
`N[C@H](c1cccc(Cl)c1)c1cc(C(=O)c2cncnc2N[C@@H]2C[C@H](COS(N)(=O)=O)[C@@H](O)C2)sc1Cl` (single isomer, unassigned) [I-15b, [(1R,2S,4R)-4-{[5-({4-[(R)-amino(3-chlorophenyl)methyl]-5-chloro-2-thienyl}carbonyl)pyrimidin-4-yl]amino}-2-hydroxycyclopentyl]methyl sulfamate or [(1R,2S,4R)-4-{[5-({4-[(S)-amino(3-chlorophenyl)methyl]-5-chloro-2-thienyl}carbonyl)pyrimidin-4-yl]amino}-2-hydroxycyclopentyl]methyl sulfamate]: under “Concentration 0.111 μM”, the “Percent Inhibition” value came to 100. For the same molecule, the half-inhibitory concentration (IC50) (class symbols A/B/C) was less than 10 nM.
Turning to `NS(=O)(=O)OC[C@H]1C[C@@H](Nc2ncncc2C(=O)c2cc(Cc3cccc(Cl)c3)cs2)C[C@@H]1O` [I-43, {(1R,2S,4R)-4-[(5-{[4-(3-chlorobenzyl)-2-thienyl]carbonyl}pyrimidin-4-yl)amino]-2-hydroxycyclopentyl}methyl sulfamate], where the note is “Concentration 0.111 μM”, the inhibition at 0.111 µM stood at 99%.
Consider `NS(=O)(=O)OC[C@H]1C[C@@H](Nc2ncncc2C(=O)c2cc(COc3cccc(Cl)c3Cl)cs2)C[C@@H]1O` [I-180, [(1R,2S,4R)-4-{[5-({4-[(2,3-dichlorophenoxy)methyl]-2-thienyl}carbonyl)pyrimidin-4-yl]amino}-2-hydroxycyclopentyl]methyl sulfamate], for which, for the setting “Concentration 0.111 μM”, the inhibition at 0.111 µM is 84%. Moreover, the IC50 (class symbols A/B/C) was in the range of 10 to 100 nM.
In the case of `C[C@@H]1CCCN(Cc2csc(C(=O)c3cncnc3N[C@@H]3C[C@H](COS(N)(=O)=O)[C@@H](O)C3)c2)C1` (mixture of isomers) [I-225, [(1R,2S,4R)-2-hydroxy-4-({5-[(4-{[(3R)-3-methylpiperidin-1-yl]methyl}-2-thienyl)carbonyl]pyrimidin-4-yl}amino)cyclopentyl]methyl sulfamate and [(1R,2S,4R)-2-hydroxy-4-({5-[(4-{[(3S)-3-methylpiperidin-1-yl]methyl}-2-thienyl)carbonyl]pyrimidin-4-yl}amino)cyclopentyl]methyl sulfamate], the “Percent Inhibition” value (Concentration 0.111 μM) was found to be 33. Besides, the IC50 (class symbols A/B/C) is 100 to 1000 nM.
In the case of `NS(=O)(=O)OC[C@H]1C[C@@H](Nc2ncncc2C(=O)c2cc(Cc3ccc(C(F)(F)F)o3)cs2)C[C@@H]1O` [I-119, [(1R,2S,4R)-2-Hydroxy-4-{(5-[(4-{[5-(trifluoromethyl)-2-furyl]methyl}-2-thienyl)carbonyl]pyrimidin-4-yl}amino)cyclopentyl]methyl sulfamate], the inhibition at 0.111 µM (Concentration 0.111 μM) came to 96%. The concentration for half-maximal inhibition (IC50) (class symbols A/B/C) was less than 10 nM.
Take `Cc1cccc(Cc2csc(C(=O)c3cncnc3N[C@@H]3C[C@H](COS(N)(=O)=O)[C@@H](O)C3)n2)c1` [I-351, {(1R,2S,4R)-2-hydroxy-4-[(5-{[4-(3-methylbenzyl)-1,3-thiazol-2-yl]carbonyl}pyrimidin-4-yl)amino]cyclopentyl}methyl sulfamate]: the inhibition at 0.111 µM under setting [1] is 93%.
As to `NS(=O)(=O)OC[C@H]1C[C@@H](Nc2ncncc2C(=O)c2cc([C@H](O)c3cccc(Cl)c3)cs2)C[C@@H]1O` (mixture of isomers) [I-4, [(1R,2S,4R)-4-{[5-({4-[(R)-(3-chlorophenyl)(hydroxy)methyl]-2-thienyl}carbonyl)pyrimidin-4-yl]amino}-2-hydroxycyclopentyl]methyl sulfamate and [(1R,2S,4R)-4-{[5-({4-[(S)-(3-chlorophenyl)(hydroxy)methyl]-2-thienyl}carbonyl)pyrimidin-4-yl]amino}-2-hydroxycyclopentyl]methyl sulfamate], for the setting “Concentration 0.111 μM”, the “Percent Inhibition” value amounted to 99. For the same molecule, for the setting “class symbols A/B/C”, the IC50 is less than 10 nM.
For the molecule `NS(=O)(=O)OC[C@H]1C[C@@H](Nc2ncncc2C(=O)c2cc(CC3CCCCC3)cs2)C[C@@H]1O` [I-199, {(1R,2S,4R)-4-[(5-{[4-(Cyclohexylmethyl)-2-thienyl]carbonyl}pyrimidin-4-yl)amino]-2-hydroxycyclopentyl}methyl sulfamate], the inhibition at 0.111 µM (Concentration 0.111 μM) is 63%. Besides, where the note is “class symbols A/B/C”, the IC50 was 10 to 100 nM.
As for `NS(=O)(=O)OC[C@H]1C[C@@H](Nc2ncncc2C(=O)c2cc(Cc3ccccc3)c(Cc3ccccc3)o2)C[C@@H]1O` [I-139, [(1R,2S,4R)-4-{[5-(4,5-dibenzyl-2-furoyl)pyrimidin-4-yl]amino}-2-hydroxycyclopentyl]methyl sulfamate], the inhibition at 0.111 µM (Concentration 0.111 μM) was 94%. In addition, the half-inhibitory concentration (IC50) (class symbols A/B/C) was less than 10 nM.
On to `NS(=O)(=O)OC[C@H]1C[C@@H](Nc2ncncc2C(=O)c2cc([C@@]3(c4cccc(Cl)c4)CCCN3)cs2)C[C@@H]1O` (single isomer, unassigned) [I-38a, [(1R,2S,4R)-4-{[5-({4-[(2S)-2-(3-chlorophenyl)pyrrolidin-2-yl]-2-thienyl}carbonyl)pyrimidin-4-yl]amino}-2-hydroxycyclopentyl]methyl sulfamate or [(1R,2S,4R)-4-{[5-({4-[(2R)-2-(3-chlorophenyl)pyrrolidin-2-yl]-2-thienyl}carbonyl)pyrimidin-4-yl]amino}-2-hydroxycyclopentyl]methyl sulfamate], for which the “Percent Inhibition” value (Concentration 0.111 μM) turned out to be 75. The half-maximal inhibitory concentration (IC50) (class symbols A/B/C) is 10 to 100 nM.
In the case of `N[C@H](c1cccc(Br)c1)c1cc(C(=O)c2cncnc2N[C@@H]2C[C@H](COS(N)(=O)=O)[C@@H](O)[C@H]2O)sc1Cl` (single isomer, unassigned) [I-24b, [(1R,2R,3S,4R)-4-{[5-({4-[(R)-amino(3-bromophenyl)methyl]-5-chloro-2-thienyl}carbonyl)pyrimidin-4-yl]amino}-2,3-dihydroxycyclopentyl]methyl sulfamate or [(1R,2R,3S,4R)-4-{[5-({4-[(S)-amino(3-bromophenyl)methyl]-5-chloro-2-thienyl}carbonyl)pyrimidin-4-yl]amino}-2,3-dihydroxycyclopentyl]methyl sulfamate], under “Concentration 0.111 μM”, the “Percent Inhibition” value is on record as 101.
As for `CC(C)(C)OC(=O)N1CCc2ccc(Cl)cc2[C@@H]1c1csc(C(=O)c2cncnc2N[C@@H]2C[C@H](COS(N)(=O)=O)[C@@H](O)C2)c1.CC(C)(C)OC(=O)N1CCc2ccc(Cl)cc2[C@H]1c1csc(C(=O)c2cncnc2N[C@@H]2C[C@H](COS(N)(=O)=O)[C@@H](O)C2)c1` (mixture of isomers) [I-334, tert-butyl (1R)-7-chloro-1-(5-{[4-({(1R,3S,4R)-3-hydroxy-4-[(sulfamoyloxy)methyl]cyclopentyl}amino)pyrimidin-5-yl]carbonyl}-3-thienyl)-3,4-dihydroisoquinoline-2(1H)-carboxylate and tert-butyl (1S)-7-chloro-1-(5-{[4-({(1R,3S,4R)-3-hydroxy-4-[(sulfamoyloxy)methyl]cyclopentyl}amino)pyrimidin-5-yl]carbonyl}-3-thienyl)-3,4-dihydroisoquinoline-2(1H)-carboxylate], the “Percent Inhibition” value under setting [1] worked out at 10%. For the same molecule, under setting [2], the IC50 fell in the range of 100 to 1000 nM.
